Read-outs that look alike come from different tables or passages of the source.

In one assay the target is hDGKzeta(1-928)-N-His (Homo sapiens (Human), UniProt Q13574). The assay is described as follows: DGKzeta ADP Glo assay (in vitro DGK inhibition). The class given is biochemical. Conditions: DLG 125 uM, ATP 50 μM, DGK ζ 2 nM, 1 hour reaction. How it is done:
(§1) DGK α and ζ kinase use ATP to phosphorylate the substrate 1,2-dilauroyl-sn-glycerol (DLG, incorporated in the liposomes). ATP is converted to ADP as a result of this enzymatic reaction. After the kinase reaction, an ATP-depletion reagent is added to terminate the kinase reaction and deplete any remaining ATP, leaving only ADP. Second, a detection reagent is added to simultaneously convert ADP to ATP and allow the newly synthesized ATP to be converted to light using a coupled luciferase/luciferin reaction.
(§2) Purification of both enzymes was performed as previously described by Takahashi et al., PeerJ, 2018 (Takahashi, D.; Sakane, F. Expression and purification of human diacylglycerol kinase alpha from baculovirus-infected insect cells for structural studies. PeerJ 2018, 6, No. e5449).
(§3) A concentrated liposome solution was prepared in assay buffer without DTT and BSA: 2 mM of DLG in 21 mM of total liposome (2 mM DLG/8 mM PS/11 mM PC). […] The reactions were started by addition of DGK α and ζ kinases at 4 nM and 2 nM final concentrations, respectively. After 1 hour reaction, the amount of ADP formed was detected with the ADP-Glo kinase assay (Promega) according to the manufacturer instructions. Compounds were added in 11-points dose response, starting at […], 1:3 dilutions, with a final DMSO concentration of 2%. The multidrop combi was used as a liquid handler and luminescence was read with 0.5 s by the envision reader (PE).

In another assay the target is hDGKalpha(1-735)-N-His (Homo sapiens (Human), UniProt P23743). Put plainly: DGKalpha ADP Glo assay (in vitro DGK inhibition). The class given is biochemical. Particulars: DLG 125 uM, ATP 25 μM, DGK α 4 nM, 1 hour reaction. The method, then: as §1, §2, §3
hDGKalpha(1-735)-N-His, sequence (P23743 whole entry): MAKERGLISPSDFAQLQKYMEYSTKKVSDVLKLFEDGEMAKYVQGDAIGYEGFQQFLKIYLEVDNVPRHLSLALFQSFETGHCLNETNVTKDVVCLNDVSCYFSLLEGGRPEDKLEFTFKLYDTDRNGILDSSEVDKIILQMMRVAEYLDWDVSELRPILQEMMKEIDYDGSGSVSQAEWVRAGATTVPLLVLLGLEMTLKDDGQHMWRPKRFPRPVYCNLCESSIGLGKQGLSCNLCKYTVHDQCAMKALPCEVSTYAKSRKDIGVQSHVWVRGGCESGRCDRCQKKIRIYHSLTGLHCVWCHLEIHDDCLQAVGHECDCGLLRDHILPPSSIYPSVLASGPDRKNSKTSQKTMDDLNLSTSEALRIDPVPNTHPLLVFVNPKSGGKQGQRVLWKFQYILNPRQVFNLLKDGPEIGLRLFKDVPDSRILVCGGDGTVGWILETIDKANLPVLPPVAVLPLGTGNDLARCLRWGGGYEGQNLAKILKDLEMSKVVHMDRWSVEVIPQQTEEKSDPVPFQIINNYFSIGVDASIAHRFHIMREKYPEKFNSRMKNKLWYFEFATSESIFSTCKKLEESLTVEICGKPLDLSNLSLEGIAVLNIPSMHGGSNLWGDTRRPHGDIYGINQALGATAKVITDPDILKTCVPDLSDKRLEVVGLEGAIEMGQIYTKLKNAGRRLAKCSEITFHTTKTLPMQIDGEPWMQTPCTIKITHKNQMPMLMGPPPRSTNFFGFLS
Assay [1] has as its system primary human T-cells. The assay is described as follows: Proliferation assay after 5 days (CellTiter-Glo, CD3 stimulation; PBS counter screen). In kind it is cell-based. Particulars: CD3 stimulation; for Emax proliferation (% activation) / Emax: 5 days, normalized to reference compound A1 as stimulator control = 100%, DMSO neutral control; for EC50: primary human T-cells, CellTiter-Glo after 5 days, EC50 of fitted sigmoidal curve, read-out: Tcell Proliferation CD3 EC50; for Emax: read-out: Emax proliferation (% activation). The gist of the method: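 Luminescent ATP detection (CellTiter-Glo 2.0) quantified cell number 5 days after compounds went onto medium-only plates. Wells showing visible toxicity or precipitate were noted beforehand, and compounds that stimulated unstimulated cells or lowered viability were flagged.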
(Cellular ATP, detected with luciferase, serves as a proxy for viable cell number.)

The test system of assay [2] is primary human T-cells.

hDGKzeta(1-928)-N-His, sequence (Q13574 whole entry): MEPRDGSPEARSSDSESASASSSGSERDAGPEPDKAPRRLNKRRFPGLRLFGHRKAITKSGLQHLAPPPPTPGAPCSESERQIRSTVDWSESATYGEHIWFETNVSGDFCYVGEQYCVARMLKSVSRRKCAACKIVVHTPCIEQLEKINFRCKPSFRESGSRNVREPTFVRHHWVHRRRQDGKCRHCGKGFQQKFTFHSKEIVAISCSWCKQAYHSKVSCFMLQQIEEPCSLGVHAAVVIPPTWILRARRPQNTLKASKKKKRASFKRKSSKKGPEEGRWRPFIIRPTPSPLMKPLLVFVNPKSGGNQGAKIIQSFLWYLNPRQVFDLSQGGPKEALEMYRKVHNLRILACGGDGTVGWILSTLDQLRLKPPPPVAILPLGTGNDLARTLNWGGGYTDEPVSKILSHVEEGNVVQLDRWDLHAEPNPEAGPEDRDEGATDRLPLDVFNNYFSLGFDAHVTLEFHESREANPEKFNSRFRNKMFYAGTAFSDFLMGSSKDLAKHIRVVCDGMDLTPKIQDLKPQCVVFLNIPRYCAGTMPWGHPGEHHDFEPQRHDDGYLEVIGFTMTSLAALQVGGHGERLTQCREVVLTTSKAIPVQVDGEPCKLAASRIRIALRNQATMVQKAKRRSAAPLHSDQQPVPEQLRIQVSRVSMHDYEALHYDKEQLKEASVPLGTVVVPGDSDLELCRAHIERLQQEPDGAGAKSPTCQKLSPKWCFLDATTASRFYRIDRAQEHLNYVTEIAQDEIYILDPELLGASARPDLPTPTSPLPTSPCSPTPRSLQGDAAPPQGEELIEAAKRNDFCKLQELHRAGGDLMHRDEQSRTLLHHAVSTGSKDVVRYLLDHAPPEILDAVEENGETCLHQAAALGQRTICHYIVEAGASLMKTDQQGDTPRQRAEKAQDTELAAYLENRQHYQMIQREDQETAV

As to `N[C@H]1C[S+]([O-])c2cc(F)c(-c3noc(N4CCOC5CC54)n3)cc2N(Cc2ccc(Cl)cc2)C1=O` (single isomer, unassigned; epimer b) [Example 208], the IC50 against hDGKzeta(1-928)-N-His came out at 0.147 µM; on hDGKalpha(1-735)-N-His, 2.64 µM. Besides, the “Emax proliferation (% activation)” value in the assay on primary human T-cells [1] was found to be 106 % activation. Further, the EC50 in the assay with primary human T-cells [1] was found to be 5.31 µM; in the assay with primary human T-cells [2] it was 5.25 µM.
`CC(C)(C)c1nnc(-c2cc3c(cc2F)S(=O)(=O)C[C@H](N)C(=O)N3Cc2ccc(C(C)(C)C#N)cc2)o1` [Example 244, 2-methyl-2-[4-[[(3R)-3-amino-7-(5-tert-butyl-1,3,4-oxadiazol-2-yl)-8-fluoro-1,1,4-trioxo-2,3-dihydro-1λ^6,5-benzothiazepin-5-yl]methyl]phenyl]propanenitrile]: the IC50 turned out to be 1.1 µM against hDGKzeta(1-928)-N-His and 0.836 µM at hDGKalpha(1-735)-N-His. The Emax in the assay on primary human T-cells [1] (Homo sapiens, T-cell, 120 h) was determined as 102%. The EC50 in the assay on primary human T-cells [1] (Homo sapiens, T-cell, 120 h) was determined as 0.137 µM; with primary human T-cells [2] it was 0.236 µM.
In the same order, the values of `Cc1cc(S(C)(=O)=O)ccc1-c1nc(-c2cc3c(cc2F)S(=O)(=O)C[C@H](N)C(=O)N3Cc2ccc(Cl)cc2)no1` [Example 314, (3R)-3-amino-5-[(4-chlorophenyl)methyl]-8-fluoro-7-[5-(2-methyl-4-methylsulfonyl-phenyl)-1,2,4-oxadiazol-3-yl]-1,1-dioxo-2,3-dihydro-1λ^6,5-benzothiazepin-4-one] are 0.15 µM, 6.15 µM, 78%, 0.155 µM and 0.234 µM.
With `COC(=O)N1CCC(c2nnc(-c3ccc4c(c3)N(Cc3ccc(OC5CCCC5)cc3)C(=O)[C@@H](N)CS4(=O)=O)o2)C1` (stereo partly drawn) [Example 444, methyl 3-[5-[(3R)-3-amino-5-[[4-(cyclopentoxy)phenyl]methyl]-1,1,4-trioxo-2,3-dihydro-1λ^6,5-benzothiazepin-7-yl]-1,3,4-oxadiazol-2-yl]pyrrolidine-1-carboxylate], the IC50 at hDGKzeta(1-928)-N-His is 1.91 µM; on hDGKalpha(1-735)-N-His, 6.11 µM. In the assay on primary human T-cells [1] (Homo sapiens, T-cell, 120 h), the Emax stood at 99%. For the same molecule, the EC50 with primary human T-cells [1] (Homo sapiens, T-cell, 120 h) was 2.37 µM; in the assay on primary human T-cells [2], > 10 µM.
With `CC(C)Oc1ccc(CN2C(=O)[C@@H](N)CS(=O)(=O)c3cc(F)c(-c4noc(C(N)C(F)(F)F)n4)cc32)cc1` (stereo partly drawn) [Example 48, (3R)-3-amino-7-[5-(1-amino-2,2,2-trifluoro-ethyl)-1,2,4-oxadiazol-3-yl]-8-fluoro-5-[(4-isopropoxyphenyl)methyl]-1,1-dioxo-2,3-dihydro-1λ^6,5-benzothiazepin-4-one], the IC50 against hDGKzeta(1-928)-N-His was 0.114 µM; on hDGKalpha(1-735)-N-His, 0.403 µM. Also, the Emax in the assay on primary human T-cells [1] (Homo sapiens, T-cell, 120 h) came to 248%. In addition, the EC50 in the assay on primary human T-cells [1] (Homo sapiens, T-cell, 120 h) came to 3.19 µM; in the assay with primary human T-cells [2], 2.33 µM.
With `N[C@H]1CS(=O)(=O)c2cc(F)c(-c3noc(C(N)(c4ccc(F)cc4)C(F)(F)F)n3)cc2N(Cc2ccc(Cl)cc2)C1=O` (stereo partly drawn) [Example 300, (3R)-3-amino-7-[5-[1-amino-2,2,2-trifluoro-1-(4-fluorophenyl)ethyl]-1,2,4-oxadiazol-3-yl]-5-[(4-chlorophenyl)methyl]-8-fluoro-1,1-dioxo-2,3-dihydro-1λ^6,5-benzothiazepin-4-one], the IC50 against hDGKzeta(1-928)-N-His was found to be 0.481 µM; against hDGKalpha(1-735)-N-His, 3.94 µM. Also, the Emax with primary human T-cells [1] (Homo sapiens, T-cell, 120 h) came out at 193%. For the same molecule, the EC50 is 0.127 µM in the assay on primary human T-cells [1] (Homo sapiens, T-cell, 120 h) and 0.243 µM in the assay with primary human T-cells [2].
Consider `COCCN1CCCC(F)(c2nnc(-c3ccc4c(c3)N(Cc3ccc(Cl)cc3)C(=O)[C@@H](N)CS4(=O)=O)o2)C1` (stereo partly drawn) [Example 386, (3R)-3-amino-5-[(4-chlorophenyl)methyl]-7-[5-[3-fluoro-1-(2-methoxyethyl)-3-piperidyl]-1,3,4-oxadiazol-2-yl]-1,1-dioxo-2,3-dihydro-1λ^6,5-benzothiazepin-4-one], for which the IC50 against hDGKzeta(1-928)-N-His came out at 0.778 µM; at hDGKalpha(1-735)-N-His, 3.57 µM. In addition, in the assay on primary human T-cells [1] (Homo sapiens, T-cell, 120 h), the Emax was 108%. Further, the EC50 came to 2.27 µM in the assay on primary human T-cells [1] (Homo sapiens, T-cell, 120 h) and 4.87 µM in the assay with primary human T-cells [2].
On to `CC(C)(C)c1nc(-c2cc3c(cc2F)S(=O)(=O)C[C@H](N)C(=O)N3Cc2ccc(F)cc2)no1` [Example 357, (3R)-3-amino-7-(5-tert-butyl-1,2,4-oxadiazol-3-yl)-8-fluoro-5-[(4-fluorophenyl)methyl]-1,1-dioxo-2,3-dihydro-1λ^6,5-benzothiazepin-4-one], for which the figures for the IC50 on hDGKzeta(1-928)-N-His and against hDGKalpha(1-735)-N-His were 0.114 µM and 0.403 µM, respectively. Moreover, the Emax with primary human T-cells [1] (Homo sapiens, T-cell, 120 h) was determined as 386%. For the same molecule, the EC50 worked out at 1.14 µM with primary human T-cells [1] (Homo sapiens, T-cell, 120 h) and 3 µM in the assay with primary human T-cells [2].
In the same order, the values of `CC(N)(c1nc(-c2cc3c(cc2F)S(=O)(=O)C[C@H](N)C(=O)N3Cc2ccc(Cl)cc2)no1)C(F)(F)F` (stereo partly drawn) [Example 297, (3R)-3-amino-7-[5-(1-amino-2,2,2-trifluoro-1-methyl-ethyl)-1,2,4-oxadiazol-3-yl]-5-[(4-chlorophenyl)methyl]-8-fluoro-1,1-dioxo-2,3-dihydro-1λ^6,5-benzothiazepin-4-one] are 0.357 µM, 0.373 µM, 157%, 0.219 µM and 0.169 µM.
In the same order, the values of `N[C@H]1CS(=O)(=O)c2ccc(-c3nnc(N4[C@@H]5CC[C@H]4COC5)o3)cc2N(Cc2ccc(Cl)cc2)C1=O` [Example 407, (3R)-3-amino-5-[(4-chlorophenyl)methyl]-7-[5-[(1R,5S)-3-oxa-8-azabicyclo[3.2.1]octan-8-yl]-1,3,4-oxadiazol-2-yl]-1,1-dioxo-2,3-dihydro-1λ^6,5-benzothiazepin-4-one] are 2.66 µM, 1.42 µM, 96%, 2.81 µM and > 10 µM.
In the case of `Cc1ccc(-c2nnc(-c3ccc4c(c3)N(Cc3ccc(Cl)cc3)C(=O)[C@@H](N)CS4(=O)=O)o2)cn1` [Example 390, (3R)-3-amino-5-[(4-chlorophenyl)methyl]-7-[5-(6-methyl-3-pyridyl)-1,3,4-oxadiazol-2-yl]-1,1-dioxo-2,3-dihydro-1λ^6,5-benzothiazepin-4-one], the figures for the half-inhibitory concentration (IC50) against hDGKzeta(1-928)-N-His and on hDGKalpha(1-735)-N-His were 2.63 µM and 38.5 µM, respectively. In addition, the Emax in the assay on primary human T-cells [1] (Homo sapiens, T-cell, 120 h) came out at 69%. The EC50 is 4.51 µM in the assay on primary human T-cells [1] (Homo sapiens, T-cell, 120 h) and > 10 µM in the assay on primary human T-cells [2].
As to `CC(C)(CO)n1nnc(-c2cc3c(cc2F)S(=O)(=O)C[C@H](N)C(=O)N3Cc2ccc(Cl)cc2)n1` [Example 28, (3R)-3-amino-5-[(4-chlorophenyl)methyl]-8-fluoro-7-[2-(2-hydroxy-1,1-dimethyl-ethyl)tetrazol-5-yl]-1,1-dioxo-2,3-dihydro-1λ^6,5-benzothiazepin-4-one], the IC50 against hDGKzeta(1-928)-N-His was found to be 0.672 µM; on hDGKalpha(1-735)-N-His, 0.513 µM. Moreover, the Emax in the assay with primary human T-cells [1] (Homo sapiens, T-cell, 120 h) is 129%. Moreover, the EC50 in the assay with primary human T-cells [1] (Homo sapiens, T-cell, 120 h) was 1.26 µM; in the assay with primary human T-cells [2], 1.11 µM.
Turning to `N[C@H]1CS(=O)(=O)c2cc(F)c(-c3noc(C4(CO)CCCO4)n3)cc2N(Cc2ccc(Oc3ccccc3)cc2)C1=O` (stereo partly drawn) [Example 521, (3R)-3-amino-8-fluoro-7-[5-[2-(hydroxymethyl)tetrahydrofuran-2-yl]-1,2,4-oxadiazol-3-yl]-1,1-dioxo-5-[(4-phenoxyphenyl)methyl]-2,3-dihydro-1λ^6,5-benzothiazepin-4-one], the results for the IC50 against hDGKzeta(1-928)-N-His and against hDGKalpha(1-735)-N-His were 0.338 µM and 3 µM, respectively. Moreover, the Emax in the assay with primary human T-cells [1] (Homo sapiens, T-cell, 120 h) was found to be 189%. For the same molecule, the EC50 was 0.622 µM with primary human T-cells [1] (Homo sapiens, T-cell, 120 h) and 0.783 µM in the assay on primary human T-cells [2].
With `N[C@H]1C[S+]([O-])c2cc(F)c(-c3noc(N4CCOC(C(F)(F)F)C4)n3)cc2N(Cc2ccc(Cl)cc2)C1=O` (single isomer, unassigned; epimer b) [Example 212], the results for the IC50 against hDGKzeta(1-928)-N-His and at hDGKalpha(1-735)-N-His were 0.046 µM and 0.975 µM, respectively. The “Emax proliferation (% activation)” value with primary human T-cells [1] came out at 178 % activation. The EC50 with primary human T-cells [1] was found to be 0.338 µM; in the assay with primary human T-cells [2], 2.95 µM.
Consider `COC(=O)N1CCC(c2nc(-c3cc4c(cc3F)S(=O)(=O)C[C@H](N)C(=O)N4Cc3ccc(OC4CCCC4)cc3)no2)C1` (stereo partly drawn) [Example 348, methyl 3-[3-[(3R)-3-amino-5-[[4-(cyclopentoxy)phenyl]methyl]-8-fluoro-1,1,4-trioxo-2,3-dihydro-1λ^6,5-benzothiazepin-7-yl]-1,2,4-oxadiazol-5-yl]pyrrolidine-1-carboxylate], for which the figures for the IC50 on hDGKzeta(1-928)-N-His and against hDGKalpha(1-735)-N-His were 0.374 µM and 2.66 µM, respectively. For the same molecule, in the assay with primary human T-cells [1] (Homo sapiens, T-cell, 120 h), the Emax stood at 141%. The EC50 in the assay with primary human T-cells [1] (Homo sapiens, T-cell, 120 h) was determined as 0.662 µM; in the assay on primary human T-cells [2] it was 1.71 µM.

For orientation: IC50 means the concentration needed to halve the response being measured. Read a high IC50 as a need for much substance.

The values above are taken from US20240368150A1 (Hoffmann-La Roche Inc., priority 2021, published 2024).
